Paper PMC6155299, “Synthesis and Evaluation of New Pyrazoline Derivatives as Potential Anticancer Agents in HepG-2 Cell Line” (Molecules : A Journal of Synthetic Chemistry and Natural …, 2017)
Like-named read-outs stand apart in the source and are kept apart here.

Tests used:
primary hepatocytes = assay: MTS assay, cytotoxicity against primary hepatocytes; format: cell-based, rat; settings: for IC50: Rattus norvegicus, Hepatocyte, 48 h; for cytotoxicity against primary hepatocytes (in words): compared with HepG-2
Procedure: (§1) Primary hepatocytes were isolated from male SD rats weighing 250–300 g using a modified in situ collagenase perfusion method and then the cells were cultured in Dulbecco’s Modified Eagle’s Medium (DMEM) with 2 g/L bovine serum albumin (BSA) and 50 mg/L gentamicin. HepG-2 cells were incubated in RPMI 1640 medium supplemented with 10% fetal bovine serum (FBS) and 1% penicillin–streptomycin liquid. Cells were incubated at 37 °C in a humidified atmosphere of 95% air and 5% CO2. Stock solutions of compounds and cisplatin were prepared in dimethyl sulfoxide (DMSO), then added to fresh culture medium to obtain final concentrations.
The cytotoxicological activity of compounds b5, b9, and b14–18 were evaluated against primary hepatocytes using the MTS assay (Cell Titer 96® Aqueous Cell Proliferation Assay, Promega, Cat. No. G5421) as a fast and sensitive quantification of cell proliferation and viability. The concentrations of compounds were prepared in seven different concentrations (2.5 µM, 5 µM, 10 µM, 20 µM, 40 µM, 80 µM, 160 µM). Cells were seeded into 96-well plates at a density of 26,000 cells/well. The plates were incubated for 24 h prior to any treatment. At the end of this period, the medium was removed and 100 µL of different concentrations of pyrazoline derivatives were added to wells for 48 h. Following the exposure period, 20 μL of the combined MTS/PMS solution was added to cells and incubated for a further 2 h at 37 °C, then the absorbance was recorded at 490 nm using an ELISA Plate Reader (ELISA, Emeryville, CA, USA). The values of IC50, the effective concentration at which 50% of the primary hepatocytes were inhibited, were calculated to evaluate the cytotoxic activities.

HepG-2 cells [1] = assay: MTT assay, cytotoxic effects on HepG-2 cells; format: cell-based, human; settings: 48 h
Procedure: as §1
Next, compounds b14 and b18 were prepared in five different concentrations (20 µM, 40 µM, 60 µM, 80 µM, 100 µM), and compounds b15, b16, and b17, along with cisplatin, were prepared in seven different concentrations (2.5 µM, 5 µM, 7.5 µM, 10 µM, 20 µM, 40 µM, 60 µM). A suspension of growing cells (50,000/mL) was prepared, and 100 µL/well dispensed into 96-well plates, yielding a density of 5000 cells/well. The cells were incubated for 24 h before adding the pyrazoline derivatives. The optimal cell number for cytotoxicity assays was determined in preliminary experiments. At the end of the incubation period, the medium was removed and 100 µL of different concentrations of pyrazoline derivatives were added to wells for 24 h and 48 h. Following the exposure period, 20 µL of MTT (5 mg/mL) were added to cells and incubated for a further 4 h at 37 °C. The medium was removed and the formazan crystals were solubilized by adding 150 µL DMSO to each well. After 10 min of shaking, the absorbance was measured at 550 nm using a FilterMax F5 Multi-Mode Microplate Reader (Energy Chemical, Shanghai, China). Cells were treated with each compound with four replicates per concentration, and each experiment was conducted at least three times. Dose–inhibition rate curves and IC50 values, defined as the drug concentrations which reduced absorbance to 50% of control values, were then generated.

HepG-2 cells [2] = assay: Annexin-V assay (annexin V/PI flow cytometry); format: cell-based, human; settings: 12 h
Procedure: Approximately 1.5 × 10^5 HepG-2 cells/well were plated in 6-well plates and allowed to adhere. After 24 h, the medium was replaced with fresh culture medium containing compound b17 at final concentrations of 0 µM, 0.9 µM, 2.7 µM, and 4.5 µM. Cells were harvested after 12 h. The cells were trypsinized, washed in phosphate-buffered saline (PBS), and centrifuged at 1000 rpm for 5 min. The cells were then resuspended in 200 µL of staining solution (containing 10 µL PI and 5 µL Annexin V–PE in binding buffer), mixed gently, and incubated for 15 min at 25 °C in the dark. The samples were later analyzed with a BD Accuri™ C6 flow cytometer.

HepG-2 cells [3] = assay: Cell cycle analysis by flow cytometry (PI); format: cell-based, human; settings: 24 h
Procedure: Based on the results of the cytotoxicity assay, compound b17 was selected for further mechanistic study with HepG-2 cells. For flow cytometry analysis of DNA content, approximately 1.5 × 10^5 HepG-2 cells/well in exponential growth mode were plated in 6-well plates and allowed to adhere, then treated with different concentrations of compound b17 for 24 h. After incubation, the cells were collected, centrifuged, and fixed with ice-cold ethanol (70%). The cells were treated with RNase A and stained with PI. Samples were analyzed on a BD Accuri C6 flow cytometer (BD, New York, NY, USA). DNA histograms were analyzed using ModFit for Windows.

[4] = Homo sapiens, HepG2, HepG-2 cell line, read-out: IC50 HepG-2
[5] = Homo sapiens, HepG2, HepG-2 cells, read-out: IC50 against HepG-2 cells

melting point [°C] | Compound | IC50 (primary hepatocytes) [µM] | IC50 (HepG-2 cells [1]; [4]) [µM] | further results
194.6 to 194.7 | COc1cc(C2CC(c3ccccc3O)=NN2S(=O)(=O)c2ccc(C)cc2)cc(OC)c1O (centres unmarked) [b9, 4-[5-(2-Hydroxyphenyl)-2-(toluene-4-sulfonyl)-3,4-dihydro-2H-pyrazol-3-yl]-2,6-dimethoxy-phenol] | 29.7 ± 2.43 | 12 ± 1.83 | cytotoxicity against primary hepatocytes (in words) (primary hepatocytes): lower cytotoxicological activity; IC50 (HepG-2 cells [1]; [5]): < 50 µM
207.7 to 209.3 | COc1cc(C2CC(c3ccccc3O)=NN2C(=O)c2cccc([N+](=O)[O-])c2)cc(OC)c1O (centres unmarked) [b11, [5-(4-Hydroxy-3,5-dimethoxyphenyl)-3-(2-hydroxyphenyl)-4,5-dihydro-pyrazol-1-yl]-(3-nitrophenyl)-methanone] |  | > 50 | 
196.1 to 197.2 | COc1cc(C2CC(c3ccccc3O)=NN2C(=O)c2cccs2)cc(OC)c1O (centres unmarked) [b15, [5-(4-Hydroxy-3,5-dimethoxyphenyl)-3-(2-hydroxyphenyl)-4,5-dihydro-pyrazol-1-yl]-thiophen-2-yl-methanone] | 19.24 ± 0.08 | 4.51 ± 1.49 | 
250.1 to 251.2 | COc1cc(C2CC(c3ccccc3O)=NN2C(=O)c2ccc([N+](=O)[O-])cc2)cc(OC)c1O (centres unmarked) [b12, [5-(4-Hydroxy-3,5-dimethoxyphenyl)-3-(2-hydroxyphenyl)-4,5-dihydro-pyrazol-1-yl]-(4-nitrophenyl)-methanone] |  | > 50 | 
169.2 to 170.1 | COc1cc(C2CC(c3ccccc3O)=NN2C(=O)c2cc3ccccc3s2)cc(OC)c1O (centres unmarked) [b17, Benzo[b]thiophen-2-yl-[5-(4-hydroxy-3,5-dimethoxyphenyl)-3-(2-hydroxyphenyl)-4,5-dihydro-pyrazol-1-yl]-methanone] | 33.5 ± 2.33 | 3.57 ± 1.39 | cytotoxicity against primary hepatocytes (in words) (primary hepatocytes): low cytotoxicity; percentage of cell apoptosis (HepG-2 cells [2]; HepG-2, 0.9 µM): 7.6%; percentage of cell apoptosis (HepG-2 cells [2]; HepG-2, 2.7 µM): 8.7%; percentage of cell apoptosis (HepG-2 cells [2]; HepG-2, 4.5 µM): 10.2%; cells in G1 phase (Dip G1) (HepG-2 cells [3]; HepG-2, 0.9 µM): 56.88%; cells in G2/M phase (Dip G2) (HepG-2 cells [3]; HepG-2, 0.9 µM): 16.90%; cells in S phase (Dip S) (HepG-2 cells [3]; HepG-2, 0.9 µM): 26.22%; cells in G1 phase (Dip G1) (HepG-2 cells [3]; HepG-2, 2.7 µM): 33.02%; cells in G2/M phase (Dip G2) (HepG-2 cells [3]; HepG-2, 2.7 µM): 41.50%; cells in S phase (Dip S) (HepG-2 cells [3]; HepG-2, 2.7 µM): 25.48%; cells in G1 phase (Dip G1) (HepG-2 cells [3]; HepG-2, 4.5 µM): 3.11%; cells in S phase (Dip S) (HepG-2 cells [3]; HepG-2, 4.5 µM): 13.89%
194.6 to 194.7 | COc1cc(C2CC(c3ccccc3O)=NN2C(=O)c2ccccc2[N+](=O)[O-])cc(OC)c1O (centres unmarked) [b10, [5-(4-Hydroxy-3,5-dimethoxyphenyl)-3-(2-hydroxyphenyl)-4,5-dihydro-pyrazol-1-yl]-(2-nitrophenyl)-methanone] |  | > 50 | 
151.1 to 152.8 | COc1cc(C2CC(c3ccccc3O)=NN2S(=O)(=O)c2ccccc2[N+](=O)[O-])cc(OC)c1O (centres unmarked) [b6, 4-[5-(2-Hydroxyphenyl)-2-(2-nitro-benzenesulfonyl)-3,4-dihydro-2H-pyrazol-3-yl]-2,6-dimethoxy-phenol] |  | > 50 | 
195.5 to 197 | COc1cc(C2CC(c3ccccc3O)=NN2S(=O)(=O)c2ccc([N+](=O)[O-])cc2)cc(OC)c1O (centres unmarked) [b8, 4-[5-(2-Hydroxyphenyl)-2-(4-nitro-benzenesulfonyl)-3,4-dihydro-2H-pyrazol-3-yl]-2,6-dimethoxy-phenol] |  | > 50 | 
 | N.N.[Cl][Pt][Cl] [Cisplatin, cisplatin, reference compound] |  |  | IC50 (HepG-2 cells [1]; HepG-2 cell line, read-out: IC50 HepG-2): 8.45 ± 1.05 µM
201.1 to 203.7 | COc1cc(C2CC(c3ccccc3O)=NN2C(=O)c2ccco2)cc(OC)c1O (centres unmarked) [b16, Furan-2-yl-[5-(4-hydroxy-3,5-dimethoxyphenyl)-3-(2-hydroxyphenyl)-4,5-dihydro-pyrazol-1-yl]-methanone] | 20.7 ± 1.72 | 4.61 ± 1.27 | 
169.7 to 170.8 | COc1cc(C2CC(c3ccccc3O)=NN2c2ccccc2)cc(OC)c1O (centres unmarked) [b18, 4-[5-(2-Hydroxyphenyl)-2-phenyl-3,4-dihydro-2H-pyrazol-3-yl]-2,6-dimethoxy-phenol] | 50.7 ± 3.21 | 28.5 ± 1.34 | 
163.1 to 164.4 | COc1cc(C2CC(c3ccccc3O)=NN2S(=O)(=O)c2ccccc2)cc(OC)c1O (centres unmarked) [b5, 4-[2-Benzenesulfonyl-5-(2-hydroxyphenyl)-3,4-dihydro-2H-pyrazol-3-yl]-2,6-dimethoxy-phenol] | 35.1 ± 2.21 | 28.8 ± 1.32 | cytotoxicity against primary hepatocytes (in words) (primary hepatocytes): lower cytotoxicological activity; IC50 (HepG-2 cells [1]; [5]): < 50 µM
208.6 to 208.9 | COc1cc(C2CC(c3ccc([N+](=O)[O-])cc3)=NN2)cc(Br)c1O (centres unmarked) [b4, 2-Bromo-6-methoxy-4-[5-(4-nitrophenyl)-3,4-dihydro-2H-pyrazol-3-yl]-phenol] |  | > 50 | 
131.9 to 133.5 | COc1cc(C2CC(c3ccccc3O)=NN2S(=O)(=O)c2cccc([N+](=O)[O-])c2)cc(OC)c1O (centres unmarked) [b7, 4-[5-(2-Hydroxyphenyl)-2-(3-nitro-benzenesulfonyl)-3,4-dihydro-2H-pyrazol-3-yl]-2,6-dimethoxy-phenol] |  | > 50 | 
181.8 to 183.9 | COc1cc(C2CC(c3ccccc3O)=NN2)cc(Br)c1O (centres unmarked) [b3, 2-Bromo-4-[5-(2-hydroxyphenyl)-3,4-dihydro-2H-pyrazol-3-yl]-6-methoxy-phenol] |  | > 50 | 
185.5 to 186.5 | COc1cc(C2CC(c3ccccc3O)=NN2C(=O)c2ccc3ccccc3c2)cc(OC)c1O (centres unmarked) [b14, [5-(4-Hydroxy-3,5-dimethoxyphenyl)-3-(2-hydroxyphenyl)-4,5-dihydro-pyrazol-1-yl]-naphthalen-2-yl-methanone] | 22.7 ± 1.21 | 18 ± 1.37 | 
140.3 to 140.7 | COc1cc(C2CC(c3ccccc3O)=NN2)cc(OC)c1O (centres unmarked) [b1, 4-[5-(2-Hydroxyphenyl)-3,4-dihydro-2H-pyrazol-3-yl]-2,6-dimethoxy-phenol] |  | > 50 | 
140.7 to 141.1 | COc1cc(C2CC(c3ccc([N+](=O)[O-])cc3)=NN2)cc(OC)c1O (centres unmarked) [b2, 2,6-Dimethoxy-4-[5-(4-nitrophenyl)-3,4-dihydro-2H-pyrazol-3-yl]-phenol] |  | > 50 | 
137.9 to 140.3 | COc1cc(C2CC(c3ccc(C)cc3)=NN2c2ccccc2)cc(OC)c1OC (centres unmarked) [b19, 1-Phenyl-3-p-tolyl-5-(3,4,5-trimethoxyphenyl)-4,5-dihydro-1H-pyrazole] |  | > 50 | 

Compound | melting point [°C] | IC50 (primary hepatocytes) [µM] | IC50 (HepG-2 cells [1]; [4]) [µM] | further results
COc1cc(C2CC(c3ccccc3O)=NN2C(=O)c2cc([N+](=O)[O-])cc([N+](=O)[O-])c2)cc(OC)c1O (centres unmarked) [b13, (3,5-Dinitrophenyl)-[5-(4-hydroxy-3,5-dimethoxyphenyl)-3-(2-hydroxyphenyl)-4,5-dihydro-pyrazol-1-yl]-methanone] | 240.4 to 240.9 |  | > 50 | 
